In experiment [1] the test system is patients suffering from migraine. Nature of the experiment: Pilot double-blind placebo-controlled crossover trial, prophylactic effect in migraine. Format: in vivo, human. As for the experimental part: A study in which the effects of the angiotensin II type 1 receptor antagonist candesartan cilexetil (Atacand®) is compared to that of placebo, was carried out to explore the feasability of giving candesartan cilexetil to patients suffering from, or susceptible to, vascular headache conditions, and especially migraine.
The pilot study was a double-blind placebo-controlled crossover trial on the prophylactic effect of the AT II antagonist candesartan cilexetil performed in patients suffering from migraine.
The study provides preliminary data on the feasibility of administering candesartan cilexetil for preventing migraine. It also provides preliminary data on useful concentrations of candesartan cilexetil in this use.

The subject of experiment [2] is patients having mild-to-moderate hypertension. As to conditions: hypertensive patients, versus placebo; cited from earlier work.

On to `CCOc1nc2cccc(C(=O)OC(C)OC(=O)OC3CCCCC3)c2n1Cc1ccc(-c2ccccc2-c2nn[nH]n2)cc1` (stereo not drawn) [candesartan cilexetil], for which the “relief of symptoms (migraine)” value is “significant relief of symptoms” in experiment [1] (one patient with a medical history of migraine, treating themself with Atacand 16 mg, relief subjectively noted) and “significant relief of symptoms” in experiment [1] (the other patient with a medical history of migraine, relief subjectively noted after treatment with Atacand). Regarding `CCCCC1=NC2(CCCC2)C(=O)N1Cc1ccc(-c2ccccc2-c2nnn[nH]2)cc1` [irbesartan], in experiment [2], the incidence of headache entry is “significant reduction”.

The record behind these values is patent publication US7872035B2, “Angiotensin II antagonists” (AstraZeneca AB, priority 2001, dated 2011).
